Reference: US20210346476A1, “Modified FVIII Apitope Peptides” (APITOPE INTERNATIONAL NV, priority 2012, published 2021)
No end group written: not given here.

Test: Direct dissolution of tagged peptides in aqueous solvent (PBS) at 4 mg/mL, NanoDrop
Format: physicochemical
Details: 4 mg/mL in PBS vs DMSO control; FIG. 2
Procedure: For each test peptide and the parent peptides (PRCLT and DNIMV) two tubes were prepared at 4 mg/mL in either DMSO (control) or PBS.
Each tube was spun at full speed in a mini-centrifuge for 5 minutes. A 10 μL sample was removed from the top of each solution and the molecular weight and coefficient of absorption was recorded for each peptide.
The absorbance of the supernatant was measured using NanoDrop and the concentration calculated. In this Figure, greater disparity between the actual and expected concentration corresponds to lower relative solubility.

Sequence | solubility in PBS compared to the parent peptides
KEGPRCLTRYYSSFVNMEGKE [SEQ ID No. 10] | improved solubility in PBS
KEGPRCLTRYYSSFVNMEGKK [SEQ ID No. 9] | improved solubility in PBS
KKGDNIMVTFRNQASRPYGKK [SEQ ID No. 17] | improved solubility in PBS
KKGPRCLTRYYSSFVNMEGKE [SEQ ID No. 2] | improved solubility in PBS
KKGPRCLTRYYSSFVNMEGKK [SEQ ID No. 1] | improved solubility in PBS

Next, values leading:

solubility in PBS compared to the parent peptides | Sequence
improved solubility in PBS | KEGDNIMVTFRNQASRPYGKE [SEQ ID No. 26]
improved solubility in PBS | KEGDNIMVTFRNQASRPYGKK [SEQ ID No. 25]
improved solubility in PBS | KKGDNIMVTFRNQASRPYGKE [SEQ ID No. 18]
